The test system of one assay is Rat kidneys. The assay can be described thus: Machine perfusion of rat kidneys for 24 hours, transplantation, post-transplant serum creatinine. The assay is classed as in vivo. The settings on record: component(s) added to Belzer solution; kidneys preserved under machine perfusion for 24 hours, then transplanted; serum creatinine measured hourly for 6 hours; control BELZ solution; FIG. 2. The method, then:
Rat kidneys were recovered as above. Seven different solutions were prepared for comparison according to Table 2. […] The kidneys were preserved under machine perfusion for 24 hours with the respective solutions, and transplanted into recipient animals. Post-transplant serum creatinine (S. CREAT) was measured hourly for 6 hours.

For assay [1], the system named is Sprague-Dawley rat kidneys. In words: Cold storage of rat kidneys for 24 hours, transplantation, post-transplant serum creatinine. The assay is classed as in vivo. The settings on record: component(s) added to Viaspan; kidneys preserved under static conditions for 24 hours at 4° C, then transplanted; serum creatinine measured hourly for 6 hours; control VIASP solution; FIG. 1. The method, then:
Sprague-Dawley rat kidneys were recovered in the normal fashion and were exsanguinated and cooled to 4° C. Experimental components were added to the solution to test for improvements in post-transplant function (indicated by serum creatinine levels). Seven different solutions were prepared for comparison according to Table 1. […] The kidneys were preserved under static conditions for 24 hours with the respective solutions, and transplanted into recipient animals. Post-transplant serum creatinine (S. CREAT) was measured hourly for 6 hours.

For the compound `CC(=O)N[C@@H](CS)C(=O)O` [N-acetylcystein], the “improvement in post-transplant function (serum creatinine) compared to the control” value with Rat kidneys was “Minimal, but statistically insignificant improvements”. In assay [1], the “improvement in post-transplant function (indicated by serum creatinine levels) compared to the control” value is recorded as “Minimal, but statistically insignificant improvements”.

`O=[N+]([O-])OCC(CO[N+](=O)[O-])O[N+](=O)[O-]` [nitroglycerin]: in the assay with Rat kidneys, the “improvement in post-transplant function (serum creatinine) compared to the control” value was “Minimal, but statistically insignificant improvements”. Besides, the “improvement in post-transplant function (indicated by serum creatinine levels) compared to the control” value in assay [1] was “Minimal, but statistically insignificant improvements”.

With `CCCCC[C@H](O)/C=C/[C@H]1[C@H](O)CC(=O)[C@@H]1CCCCCCC(=O)O` [prostaglandin E1], the “improvement in post-transplant function (serum creatinine) compared to the control” value in the assay with Rat kidneys is given as “Minimal, but statistically insignificant improvements”. Besides, the “improvement in post-transplant function (indicated by serum creatinine levels) compared to the control” value in assay [1] was “Minimal, but statistically insignificant improvements”.

With `N=C(N)NCCC[C@H](N)C(=O)O` [L-arginine], the “improvement in post-transplant function (serum creatinine) compared to the control” value in the assay on Rat kidneys is reported as “Minimal, but statistically insignificant improvements”. In assay [1], the “improvement in post-transplant function (indicated by serum creatinine levels) compared to the control” value is given as “Minimal, but statistically insignificant improvements”.
